ChEMBL document CHEMBL2057083, “Development of new carbon-11 labelled radiotracers for imaging GABAA- and GABAB-benzodiazepine receptors” (Bioorg Med Chem, 2012)

Key:
Assay type in all cases: ADME, organism-based
Cerebellum [1] = assay: Biodistribution in Sprague-Dawley rat cerebellum at 37 MBq, iv measured 5 mins post injection; details: in vivo
Cerebellum [2] = assay: Biodistribution in Sprague-Dawley rat cerebellum at 37 MBq, iv measured 30 mins post injection; details: in vivo, 0.5 h
Cerebellum [3] = assay: Biodistribution in Sprague-Dawley rat cerebellum at 37 MBq, iv measured 60 mins post injection; details: in vivo, 1 h
Hippocampus [4] = assay: Biodistribution in Sprague-Dawley rat hippocampus at 37 MBq, iv measured 5 mins post injection; details: in vivo
Hippocampus [5] = assay: Biodistribution in Sprague-Dawley rat hippocampus at 37 MBq, iv measured 30 mins post injection; details: in vivo, 0.5 h
Striatum [6] = assay: Biodistribution in Sprague-Dawley rat striatum at 37 MBq, iv measured 5 mins post injection; details: in vivo
Striatum [7] = assay: Biodistribution in Sprague-Dawley rat striatum at 37 MBq, iv measured 15 mins post injection; details: in vivo, 0.25 h
Striatum [8] = assay: Biodistribution in Sprague-Dawley rat striatum at 37 MBq, iv measured 30 mins post injection; details: in vivo, 0.5 h
Rattus norvegicus [9] = assay: Biodistribution in Sprague-Dawley rat cortex (front) at 37 MBq, iv measured 15 mins post injection; details: in vivo, 0.25 h
Rattus norvegicus [10] = assay: Biodistribution in Sprague-Dawley rat cortex (front) at 37 MBq, iv measured 30 mins post injection; details: in vivo, 0.5 h
Rattus norvegicus [11] = assay: Biodistribution in Sprague-Dawley rat cortex (front) at 37 MBq, iv measured 60 mins post injection; details: in vivo, 1 h
Rattus norvegicus [12] = assay: Biodistribution in Sprague-Dawley rat cortex (rest) at 37 MBq, iv measured 5 mins post injection; details: in vivo
Rattus norvegicus [13] = assay: Biodistribution in Sprague-Dawley rat cortex (rest) at 37 MBq, iv measured 30 mins post injection; details: in vivo, 0.5 h
Rattus norvegicus [14] = assay: Biodistribution in Sprague-Dawley rat cortex (rest) at 37 MBq, iv measured 60 mins post injection; details: in vivo, 1 h
Brain [15] = assay: Biodistribution in Sprague-Dawley rat rest of brain at 37 MBq, iv measured 5 mins post injection; details: in vivo
Brain [16] = assay: Biodistribution in Sprague-Dawley rat rest of brain at 37 MBq, iv measured 30 mins post injection; details: in vivo, 0.5 h
Brain [17] = assay: Biodistribution in Sprague-Dawley rat rest of brain at 37 MBq, iv measured 60 mins post injection; details: in vivo, 1 h
Blood [18] = assay: Biodistribution in Sprague-Dawley rat blood at 37 MBq, iv measured 5 mins post injection; details: in vivo
Blood [19] = assay: Biodistribution in Sprague-Dawley rat blood at 37 MBq, iv measured 15 mins post injection; details: in vivo, 0.25 h
Blood [20] = assay: Biodistribution in Sprague-Dawley rat blood at 37 MBq, iv measured 30 mins post injection; details: in vivo, 0.5 h
[21] = Metabolic stability of the compound in Sprague-Dawley rat plasma assessed as compound remaining at 37 MBq, iv measured after 15 mins; details: read-out: Stability
[22] = Metabolic stability of the compound in Sprague-Dawley rat brain assessed as compound remaining at 37 MBq, iv measured after 15 mins; details: read-out: Stability
[23] = Biodistribution in Sprague-Dawley rat cerebellum pretreated with unlabeled compound at 0.1 mg/kg, ip administered 30 mins before labeled compound treatment at 37 MBq, iv measured 15 mins post injection (reference value: 0.26 %ID/g); parameters: dose 0.1 mg/kg; details: read-out: Drug uptake
[24] = Biodistribution in Sprague-Dawley rat cerebellum pretreated with unlabeled compound at 5 mg/kg, ip administered 30 mins before labeled compound treatment at 37 MBq, iv measured 15 mins post injection (reference value: 0.26 %ID/g); parameters: dose 5 mg/kg; details: read-out: Drug uptake
[25] = Biodistribution in Sprague-Dawley rat cerebellum pretreated with unlabeled compound at 10 mg/kg, ip administered 30 mins before labeled compound treatment at 37 MBq, iv measured 15 mins post injection (reference value: 0.26 %ID/g); parameters: dose 10 mg/kg; details: read-out: Drug uptake
[26] = Biodistribution in Sprague-Dawley rat hippocampus pretreated with unlabeled compound at 0.1 mg/kg, ip administered 30 mins before labeled compound treatment at 37 MBq, iv measured 15 mins post injection (reference value: 0.22 +/- 0.22 %ID/g); parameters: dose 0.1 mg/kg; details: read-out: Drug uptake
[27] = Biodistribution in Sprague-Dawley rat hippocampus pretreated with unlabeled compound at 5 mg/kg, ip administered 30 mins before labeled compound treatment at 37 MBq, iv measured 15 mins post injection (reference value: 0.22 +/- 0.22 %ID/g); parameters: dose 5 mg/kg; details: read-out: Drug uptake
[28] = Biodistribution in Sprague-Dawley rat hippocampus pretreated with unlabeled compound at 10 mg/kg, ip administered 30 mins before labeled compound treatment at 37 MBq, iv measured 15 mins post injection (reference value: 0.22 +/- 0.22 %ID/g); parameters: dose 10 mg/kg; details: read-out: Drug uptake
Rattus norvegicus [29] = assay: Biodistribution in Sprague-Dawley rat cortex (front) pretreated with unlabeled compound at 0.1 mg/kg, ip administered 30 mins before labeled compound treatment at 37 MBq, iv measured 15 mins post infection (reference value: 0.42 +/- 0.04%ID/g); parameters: dose 0.1 mg/kg; details: in vivo, 0.25 h
Rattus norvegicus [30] = assay: Biodistribution in Sprague-Dawley rat cortex (front) pretreated with unlabeled compound at 10 mg/kg, ip administered 30 mins before labeled compound treatment at 37 MBq, iv measured 15 mins post infection (reference value: 0.42 +/- 0.04%ID/g); parameters: dose 10 mg/kg; details: in vivo, 0.25 h
[31] = Biodistribution in Sprague-Dawley rat cortex (rest) pretreated with unlabeled compound at 0.1 mg/kg, ip administered 30 mins before labeled compound treatment at 37 MBq, iv measured 15 mins post injection (0.36 +/- 0.02 %ID/g); parameters: dose 0.1 mg/kg; details: read-out: Drug uptake
Rattus norvegicus [32] = assay: Biodistribution in Sprague-Dawley rat cortex (rest) pretreated with unlabeled compound at 5 mg/kg, ip administered 30 mins before labeled compound treatment at 37 MBq, iv measured 15 mins post injection (0.36 +/- 0.02 %ID/g); parameters: dose 5 mg/kg; details: in vivo, 0.25 h
Rattus norvegicus [33] = assay: Biodistribution in Sprague-Dawley rat cortex (rest) pretreated with unlabeled compound at 10 mg/kg, ip administered 30 mins before labeled compound treatment at 37 MBq, iv measured 15 mins post injection (0.36 +/- 0.02 %ID/g); parameters: dose 10 mg/kg; details: in vivo, 0.25 h
[34] = Biodistribution in Sprague-Dawley rat rest of brain pretreated with unlabeled compound at 0.1 mg/kg, ip administered 30 mins before labeled compound treatment at 37 MBq, iv measured 15 mins post injection (0.20 +/- 0.01 %ID/g); parameters: dose 0.1 mg/kg; details: read-out: Drug uptake
Brain [35] = assay: Biodistribution in Sprague-Dawley rat rest of brain pretreated with unlabeled compound at 5 mg/kg, ip administered 30 mins before labeled compound treatment at 37 MBq, iv measured 15 mins post injection (0.20 +/- 0.01 %ID/g); parameters: dose 5 mg/kg, route intravenous; details: in vivo, 0.25 h
Brain [36] = assay: Biodistribution in Sprague-Dawley rat rest of brain pretreated with unlabeled compound at 10 mg/kg, ip administered 30 mins before labeled compound treatment at 37 MBq, iv measured 15 mins post injection (0.20 +/- 0.01 %ID/g); parameters: dose 10 mg/kg; details: in vivo, 0.25 h
Blood [37] = assay: Biodistribution in Sprague-Dawley rat blood pretreated with unlabeled compound at 5 mg/kg, ip administered 30 mins before labeled compound treatment at 37 MBq, iv measured 15 mins post injection (0.11 +/- 0.01 %ID/g); parameters: dose 5 mg/kg; details: in vivo, 0.25 h
[38] = Biodistribution in Sprague-Dawley rat blood pretreated with unlabeled compound at 10 mg/kg, ip administered 30 mins before labeled compound treatment at 37 MBq, iv measured 15 mins post injection (0.11 +/- 0.01 %ID/g); parameters: dose 10 mg/kg; details: read-out: Drug uptake

Question: For `[11CH3]Oc1ncccc1-c1cccc2c(N)c3c(nc12)CN(C1CCC1)C3=O`, which Drug uptake (Cerebellum [1]) is on record?
Answer: 0.36 % ID/g

Question: And the Drug uptake (Cerebellum [2])?
Answer: 0.26 % ID/g

Question: What about the Drug uptake (Cerebellum [3]) of the same compound?
Answer: 0.13 % ID/g

Question: And the Drug uptake (Hippocampus [4])?
Answer: 0.2 % ID/g

Question: What about the Drug uptake (Hippocampus [5]) of the same compound?
Answer: 0.24 % ID/g

Question: What about the Drug uptake (Striatum [6]) of the same compound?
Answer: 0.26 % ID/g

Question: And the Drug uptake (Striatum [7])?
Answer: 0.21 % ID/g

Question: And the Drug uptake (Striatum [8])?
Answer: 0.15 % ID/g

Question: What about the Drug uptake (Rattus norvegicus [9]) of the same compound?
Answer: 0.53 % ID/g

Question: And the Drug uptake (Rattus norvegicus [10])?
Answer: 0.44 % ID/g

Question: And the Drug uptake (Rattus norvegicus [11])?
Answer: 0.21 % ID/g

Question: What about the Drug uptake (Rattus norvegicus [12]) of the same compound?
Answer: 0.45 % ID/g

Question: What about the Drug uptake (Rattus norvegicus [13]) of the same compound?
Answer: 0.37 % ID/g

Question: What about the Drug uptake (Rattus norvegicus [14]) of the same compound?
Answer: 0.16 % ID/g

Question: What about the Drug uptake (Brain [15]) of the same compound?
Answer: 0.25 % ID/g

Question: What about the Drug uptake (Brain [16]) of the same compound?
Answer: 0.22 % ID/g

Question: What about the Drug uptake (Brain [17]) of the same compound?
Answer: 0.11 % ID/g

Question: And the Drug uptake (Blood [18])?
Answer: 0.14 % ID/g

Question: What about the Drug uptake (Blood [19]) of the same compound?
Answer: 0.15 % ID/g

Question: And the Drug uptake (Blood [20])?
Answer: 0.11 % ID/g

Question: What about the remaining at 0.25 h [21] of the same compound?
Answer: 71%

Question: What about the remaining at 0.25 h [22] of the same compound?
Answer: > 99%

Question: And the tissue uptake at 0.25 h [23]?
Answer: 0.22 %ID/g

Question: What about the tissue uptake at 0.25 h [24] of the same compound?
Answer: 0.12 %ID/g

Question: What about the tissue uptake at 0.25 h [25] of the same compound?
Answer: 0.09 %ID/g

Question: What about the tissue uptake at 0.25 h [26] of the same compound?
Answer: 0.17 %ID/g

Question: And the tissue uptake at 0.25 h [27]?
Answer: 0.11 %ID/g

Question: And the tissue uptake at 0.25 h [28]?
Answer: 0.08 %ID/g

Question: What about the Drug uptake (Rattus norvegicus [29]) of the same compound?
Answer: 0.36 % ID/g

Question: What about the Drug uptake (Rattus norvegicus [30]) of the same compound?
Answer: 0.13 % ID/g

Question: And the tissue uptake at 0.25 h [31]?
Answer: 0.27 %ID/g

Question: And the Drug uptake (Rattus norvegicus [32])?
Answer: 0.14 % ID/g

Question: What about the Drug uptake (Rattus norvegicus [33]) of the same compound?
Answer: 0.11 % ID/g

Question: And the tissue uptake at 0.25 h [34]?
Answer: 0.16 %ID/g

Question: And the Drug uptake (Brain [35])?
Answer: 0.09 % ID/g

Question: And the Drug uptake (Brain [36])?
Answer: 0.09 % ID/g

Question: And the Drug uptake (Blood [37])?
Answer: 0.12 % ID/g

Question: And the tissue uptake at 0.25 h [38]?
Answer: 0.12 %ID/g
